Data reported in US9156858B2, “Boronic acid derivatives and therapeutic uses thereof” (priority 2012, dated 2015).
Where two headings read alike, the source gives them in different places.

Experiments:
ECL1002 (class C) [1] = test: Aztreonam MIC of test strain; format: cell-based; details: read-out: Aztreonam MIC
ec308 (SHV-5) [2] = test: Aztreonam MIC of test strain; format: cell-based; details: read-out: Aztreonam MIC
CMY-2 = CMY-2 (Klebsiella pneumoniae, UniProt Q48434); test: biochemical
KP1010 (SHV-12) [3] = test: Aztreonam potentiation (MPC@4); format: cell-based
KP1007 (OXA-10) [4] = test: Aztreonam potentiation (MPC@4); format: cell-based; details: BLI concentration inhibiting growth with 4 μg/mL aztreonam; class D
KPX1001 (OXA-2) = test: Aztreonam potentiation (MPC@4); format: cell-based; details: BLI concentration inhibiting growth with 4 μg/mL aztreonam; class D
OXA-48 = OXA-48 (Klebsiella pneumoniae, UniProt Q6XEC0); test: Inhibition of nitrocefin cleavage by purified enzyme; format: biochemical
OXA-48, sequence (Q6XEC0 23-265 limits assumed): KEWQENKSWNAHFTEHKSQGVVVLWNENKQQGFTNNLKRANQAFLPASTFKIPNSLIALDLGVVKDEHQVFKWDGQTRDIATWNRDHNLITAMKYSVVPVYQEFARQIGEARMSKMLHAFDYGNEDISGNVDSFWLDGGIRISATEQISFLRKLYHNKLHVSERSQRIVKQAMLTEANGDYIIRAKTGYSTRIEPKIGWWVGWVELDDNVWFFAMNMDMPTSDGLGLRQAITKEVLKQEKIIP
Protocol: (§1) Ki values of inhibition of purified class A, C and D enzymes were determined spectrophotometrically using nitrocefin as reporter substratre. Purified enzymes were mixed with various concentrations of inhibitors in reaction buffer and incubated for 10 min at room temperature. Nitrocefin was added and substrate cleavage profiles were recorded at 490 nm every 10 sec for 10 min.

CTX-M-14 = CTX-M-14 (Escherichia coli, UniProt Q9L5C7); test: as above; format: biochemical; details: nitrocefin reporter substrate, 10 min preincubation, read-out: Ki (CTX-M-14, NCF)
CTX-M-14, sequence (Q9L5C7 entry or part of it): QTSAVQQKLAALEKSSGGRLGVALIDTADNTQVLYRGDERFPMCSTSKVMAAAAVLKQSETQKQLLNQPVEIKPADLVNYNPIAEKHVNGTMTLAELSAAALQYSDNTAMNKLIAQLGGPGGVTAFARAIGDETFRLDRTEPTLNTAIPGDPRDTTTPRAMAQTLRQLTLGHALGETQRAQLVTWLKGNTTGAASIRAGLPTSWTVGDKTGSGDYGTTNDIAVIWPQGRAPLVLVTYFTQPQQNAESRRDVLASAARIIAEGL
Protocol: as §1

KPC-2 = KPC-2 (Klebsiella pneumoniae, UniProt Q9F663); test: as above; format: biochemical
KPC-2, sequence (Q9F663 25-293 limits assumed): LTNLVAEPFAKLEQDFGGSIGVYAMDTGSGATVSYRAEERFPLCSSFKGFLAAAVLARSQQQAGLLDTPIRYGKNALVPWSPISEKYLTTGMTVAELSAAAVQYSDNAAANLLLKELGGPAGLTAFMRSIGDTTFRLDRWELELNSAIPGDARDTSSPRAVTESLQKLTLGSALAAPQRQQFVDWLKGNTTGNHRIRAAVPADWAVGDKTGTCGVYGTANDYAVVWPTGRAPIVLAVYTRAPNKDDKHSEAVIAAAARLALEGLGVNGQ
Protocol: as §1

ECL1002 (class C) [5] = test: Tigemonam potentiation (MPC@4); format: cell-based; details: BLI concentration inhibiting growth with 4 μg/mL tigemonam
KP1004 (KPC-2) = test: Aztreonam potentiation (MPC@4); format: cell-based; details: BLI concentration inhibiting growth with 4 μg/mL aztreonam; class A
ECL1002 (class C) [6] = test: Aztreonam potentiation (MPC@4); format: cell-based; details: BLI concentration inhibiting growth with 4 μg/mL aztreonam
KP1005 (CTX-M-14) [7] = test: Aztreonam potentiation (MPC@4); format: cell-based; details: BLI concentration inhibiting growth with 4 μg/mL aztreonam; class A
ec308 (SHV-5) [8] = test: Aztreonam potentiation (MPC@4); format: cell-based; details: BLI concentration inhibiting growth with 4 μg/mL aztreonam; class A
EC1010 (CMY-6) [9] = test: Tigemonam potentiation (MPC@4); format: cell-based; details: BLI concentration inhibiting growth with 4 μg/mL tigemonam; class C
KP1009 (CTX-M-15) [10] = test: Tigemonam potentiation (MPC@4); format: cell-based; details: BLI concentration inhibiting growth with 4 μg/mL tigemonam; class A
ec302 (TEM-10) [11] = test: Tigemonam potentiation (MPC@4); format: cell-based; details: BLI concentration inhibiting growth with 4 μg/mL tigemonam; class A
EC1010 (CMY-6) [12] = test: Aztreonam potentiation (MPC@4); format: cell-based; details: BLI concentration inhibiting growth with 4 μg/mL aztreonam; class C
ec302 (TEM-10) [13] = test: Aztreonam potentiation (MPC@4); format: cell-based; details: BLI concentration inhibiting growth with 4 μg/mL aztreonam; class A
ec308 (SHV-5) [14] = test: Tigemonam potentiation (MPC@4); format: cell-based; details: BLI concentration inhibiting growth with 4 μg/mL tigemonam; class A
KP1009 (CTX-M-15) [15] = test: Aztreonam potentiation (MPC@4); format: cell-based; details: BLI concentration inhibiting growth with 4 μg/mL aztreonam; class A
KP1010 (SHV-12) [16] = test: Tigemonam potentiation (MPC@4); format: cell-based; details: BLI concentration inhibiting growth with 4 μg/mL tigemonam; class A
KP1007 (OXA-10) [17] = test: Tigemonam potentiation (MPC@4); format: cell-based; details: BLI concentration inhibiting growth with 4 μg/mL tigemonam; class D
KP1005 (CTX-M-14) [18] = test: Tigemonam potentiation (MPC@4); format: cell-based; details: BLI concentration inhibiting growth with 4 μg/mL tigemonam; class A
SHV-12 = SHV-12 (Klebsiella pneumoniae, UniProt P0AD64, E235K/G234S/L31Q); test: Inhibition of nitrocefin cleavage by purified enzyme; format: biochemical; details: nitrocefin reporter substrate, 10 min preincubation, read-out: Ki (SHV-12, NCF)
SHV-12, sequence (P0AD64 22-286 L31Q/G234S/E235K): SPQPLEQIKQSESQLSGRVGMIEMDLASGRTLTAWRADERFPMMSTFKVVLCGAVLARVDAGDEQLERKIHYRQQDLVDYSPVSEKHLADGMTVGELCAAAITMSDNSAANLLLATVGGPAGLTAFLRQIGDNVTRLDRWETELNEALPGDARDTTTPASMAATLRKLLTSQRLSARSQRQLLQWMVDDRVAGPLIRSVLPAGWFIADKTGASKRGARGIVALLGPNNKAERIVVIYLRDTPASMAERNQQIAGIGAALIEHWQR
Protocol: as §1

P99 /AmpC of ECL = P99 /AmpC of ECL (Enterobacter cloacae, UniProt P05364); test: biochemical; details: purified enzyme, nitrocefin reporter substrate, 10 min preincubation; read-out: Ki (P99 /AmpC of ECL, NCF)
P99 /AmpC of ECL, sequence (P05364 21-381): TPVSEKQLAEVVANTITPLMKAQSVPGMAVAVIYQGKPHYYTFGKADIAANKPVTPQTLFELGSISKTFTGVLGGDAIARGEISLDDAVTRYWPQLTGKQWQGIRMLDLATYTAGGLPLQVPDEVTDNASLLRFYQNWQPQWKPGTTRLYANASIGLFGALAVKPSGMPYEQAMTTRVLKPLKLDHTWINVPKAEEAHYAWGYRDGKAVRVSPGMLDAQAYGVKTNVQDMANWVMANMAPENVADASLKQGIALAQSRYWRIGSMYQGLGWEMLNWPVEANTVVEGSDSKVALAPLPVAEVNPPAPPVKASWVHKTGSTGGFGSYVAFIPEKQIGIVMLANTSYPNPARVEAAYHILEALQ

KP1005 (CTX-M-14) [19] = test system: KP1005 (CTX-M-14)
EC1010 (CMY-6) [20] = test: Tigemonam MIC of test strain; details: strain EC1010, CMY-6, class C
KP1010 (SHV-12) [21] = test: Tigemonam MIC of test strain
ec302 (TEM-10) [22] = test: Tigemonam MIC of test strain
ECL1002 (class C) [23] = details: strain ECL1002, class C
KP1007 (OXA-10) [24] = test: Tigemonam MIC of test strain; details: strain KP1007, OXA-10, class D
[25] = purified enzyme, nitrocefin reporter substrate, 10 min preincubation, read-out: Ki (CMY-2, NCF)
[26] = BLI concentration inhibiting growth with 4 μg/mL aztreonam, class A
[27] = purified enzyme, nitrocefin reporter substrate, 10 min preincubation, read-out: Ki (OXA-48, NCF)
[28] = purified enzyme, nitrocefin reporter substrate, 10 min preincubation, read-out: Ki (KPC-2, NCF)

CMY-2, sequence (Q48434 21-381): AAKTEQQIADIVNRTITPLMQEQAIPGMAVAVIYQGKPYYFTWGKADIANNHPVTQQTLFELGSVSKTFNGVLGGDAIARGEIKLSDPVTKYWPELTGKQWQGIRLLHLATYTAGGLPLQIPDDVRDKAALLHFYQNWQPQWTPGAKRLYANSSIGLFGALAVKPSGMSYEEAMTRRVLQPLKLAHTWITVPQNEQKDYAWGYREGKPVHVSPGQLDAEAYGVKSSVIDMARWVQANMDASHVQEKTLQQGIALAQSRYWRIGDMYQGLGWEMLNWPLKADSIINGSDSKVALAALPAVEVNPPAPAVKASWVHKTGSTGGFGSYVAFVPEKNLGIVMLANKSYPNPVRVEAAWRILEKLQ

Row | SMILES | Ki (CMY-2; [25]) | AZT MPC4 SHV-12 KP1010 (KP1010 (SHV-12) [3]; [26]) | AZT MPC@4 OXA-10, KP1007 (KP1007 (OXA-10) [4]) | AZT MPC@4 OXA-2, KPX1001 (KPX1001 (OXA-2)) | Ki (OXA-48; [27]) | MPC4 ECL1002 (ECL1002 (class C) [5]) | AZT MPC4 KPC-2 KP1004 (KP1004 (KPC-2)) | AZT MPC@4 ECL1002 (ECL1002 (class C) [6]) | AZT MPC4 CTX-M-14 KP1005 (KP1005 (CTX-M-14) [7]) | AZT MPC4 SHV-5 ec308 (ec308 (SHV-5) [8]) | MPC4 CMY-6, EC1010 (EC1010 (CMY-6) [9]) | MPC4 CTX-M-15 KP1009 (KP1009 (CTX-M-15) [10]) | MPC4 TEM-10 ec302 (ec302 (TEM-10) [11]) | AZT MPC@4 CMY-6 EC1010 (EC1010 (CMY-6) [12]) | AZT MPC4 TEM-10 ec302 (ec302 (TEM-10) [13]) | MPC4 SHV-5 ec308 (ec308 (SHV-5) [14]) | AZT MPC4 CTX-M-15 KP1009 (KP1009 (CTX-M-15) [15]) | MPC4 SHV-12 KP1010 (KP1010 (SHV-12) [16]) | MPC4 OXA-10, KP1007 (KP1007 (OXA-10) [17]) | MPC4 CTX-M-14 KP1005 (KP1005 (CTX-M-14) [18]) | further results
1 | C[C@H]1[C@H](NC(=O)/C(=N\OC(C)(C)C(=O)O)c2csc(N)n2)C(=O)N1S(=O)(=O)O [Aztreonam] | – | – | – | – | – | – | – | – | – | – | – | – | – | – | – | – | – | – | – | – | MIC (ECL1002 (class C) [1]): 64 µg/mL; MIC (ec308 (SHV-5) [2]): 64 µg/mL
2 | O=C(O)[C@H]1/C(=C/CO)O[C@@H]2CC(=O)N21 [Clavulanic Acid] | > 100000 nM | 0.04 µg/mL | 0.08 µg/mL | 5 µg/mL | 18600 nM | >40 µg/mL | >40 µg/mL | >40 µg/mL | 1.25 µg/mL | 0.08 µg/mL | 40 µg/mL | 1.25 µg/mL | 2.5 µg/mL | 40 µg/mL | 0.3 µg/mL | <=0.6 μg/mL | 1.25 µg/mL | <=0.6 μg/mL | <=0.6 μg/mL | 2.5 µg/mL | Ki (CTX-M-14): 27 nM; Ki (KPC-2; [28]): 41200 nM
3 | O=C(Cc1cccs1)N[C@@H](Cn1cc(C(=O)O)nn1)B(O)O [Compound 1, (R)-1-(2-borono-2-(2-(thiophen-2-yl)acetamido)ethyl)-1H-1,2,3-triazole-4-carboxylic acid] | 60 nM | 0.3 µg/mL | 0.6 µg/mL | 40 µg/mL | 23300 nM | 5 µg/mL | 5 µg/mL | 20 µg/mL | 1.25 µg/mL | 0.6 µg/mL | 0.6 µg/mL | 1.25 µg/mL | >40 µg/mL | 20 µg/mL | >40 µg/mL | 2.5 µg/mL | 10 µg/mL | 0.3 µg/mL | 0.3 µg/mL | 2.5 µg/mL | Ki (SHV-12): 5 nM; Ki (CTX-M-14): 5 nM; Ki (KPC-2; [28]): 39 nM; Ki (P99 /AmpC of ECL): 80 nM
4 | C[C@]1(Cn2ccnn2)[C@H](C(=O)O)N2C(=O)C[C@H]2S1(=O)=O [Tazobactam] | – | – | 5 µg/mL | >40 µg/mL | – | 10 µg/mL | >40 µg/mL | >40 µg/mL | 10 µg/mL | 10 µg/mL | 2.5 µg/mL | 10 µg/mL | 5 µg/mL | 20 µg/mL | 5 µg/mL | 5 µg/mL | 20 µg/mL | 1.25 µg/mL | 5 µg/mL | 10 µg/mL | Ki (CMY-2): 710 nM; AZT MPC4 SHV-12 KP1010 (KP1010 (SHV-12) [3]): 1.25 µg/mL; Ki (OXA-48): 160 nM; Ki (KPC-2): 1600 nM
5 | CC1(C)[C@H](NC(=O)/C(=N\OCC(=O)O)c2csc(N)n2)C(=O)N1OS(=O)(=O)O [Tigemonam] | – | – | – | – | – | – | – | – | – | – | – | – | – | – | – | – | – | – | – | – | Tigemonam MIC (KP1005 (CTX-M-14) [19]): 512 µg/mL; Tigemonam MIC (EC1010 (CMY-6) [20]): 16 µg/mL; Tigemonam MIC (KP1010 (SHV-12) [21]): 256 µg/mL; Tigemonam MIC (ec302 (TEM-10) [22]): >512 µg/mL; Tigemonam MIC (ECL1002 (class C) [23]): 32 µg/mL; Tigemonam MIC (KP1007 (OXA-10) [24]): >64 µg/mL
